Values of other authors in patent EP3957303A1, “PHARMACEUTICAL COMBINATION PREPARATION COMPRISING EZETIMIBE AND LOSARTAN” (Hanmi Pharm. Co., Ltd., priority 2019, dated 2020).

## O=C1[C@H](CC[C@H](O)c2ccc(F)cc2)[C@@H](c2ccc(O)cc2)N1c1ccc(F)cc1 [Ezetimibe, 1-(4-fluorophenyl)-3(R)-[3-(4-fluorophenyl)-3(S)-hydroxypropyl]-4(S)-(4-hydroxyphenyl)-2-azetidinone]
Under acidic to weakly basic conditions such as body fluids
  saturation solubility: about 1 ppm
water
  solubility in water: practically insoluble in water
